One series has as its system mutant ATXN7 aggregates. Kind of series: Filter retardation assay of SDS-insoluble material in COS-7 cells. The conditions noted are these: 0.25 to 2 μM cadmium, filter assay on pellet fraction. In kind it is cell-based. As for the experimental part: Cell culture, transfections, MG132, INF and cadmium treatments: COS-7 cells were maintained in DMEM (Invitrogen) supplemented with 5% FBS, and penicillin-streptomycin (100 UI/ml; 100 μg/ml). Cell lines were transfected with Lipofectamine-PLUS reagents (Invitrogen) as prescribed. […] Recombinant human Interferon beta (Hu-IFN-b) is obtained from human fibroblast mRNA expressed in E. Coli. Its molecular weight is approximately 20 kDa. Recombinant human Interferon beta was supplied as a solution at 1×10^6 units/ml in PBS (phosphate buffered saline) containing 0.1% BSA (bovine serum albumin) and 10% glycerol. It was purchased from Sigma-Aldrich. Recombinant human Interferon beta (2000 UI/ml) was added to the culture medium after plating and during transfection. Cadmium chloride (Cadmium chloride hemi pentahydrate, Sigma Aldrich) (from 0.25 μM to 2 μM) was added during transfection. […]
Western blot and filter retardation assay: Cells were harvested in PBS, pelleted and lysed 30 min on ice in lysis buffer containing 50 mM Tris pH 8.8, 100 mM NaCl, 5 mM MgCl2, 0.5% NP40, 1 mM EDTA and 250 UI/ml benzonase (Merck) supplemented with a cocktail of protease inhibitors (Complete and Pefabloc, Roche). […] Supernatants (30 μg protein) were analyzed by Western blot. […] Protein concentrations (supernatant and pellet) were determined by Bio-Rad assay. […]

The next series concerns endogenous PML bodies. Kind of series: Immunofluorescence of endogenous PML bodies in cadmium-treated cells expressing FL-74Q. It is filed as cell-based. The settings on record: 2 μM cadmium. As to the method:
Cell culture, transfections, MG132, INF and cadmium treatments: COS-7 cells were maintained in DMEM (Invitrogen) supplemented with 5% FBS, and penicillin-streptomycin (100 UI/ml; 100 μg/ml). Cell lines were transfected with Lipofectamine-PLUS reagents (Invitrogen) as prescribed. Unless otherwise specified, cells were harvested or analyzed by immunofluorescence 40-45 h post-transfection. β-INF. Recombinant human Interferon beta (Hu-IFN-b) is obtained from human fibroblast mRNA expressed in E. Coli. Its molecular weight is approximately 20 kDa. Recombinant human Interferon beta was supplied as a solution at 1×10^6 units/ml in PBS (phosphate buffered saline) containing 0.1% BSA (bovine serum albumin) and 10% glycerol. It was purchased from Sigma-Aldrich. Recombinant human Interferon beta (2000 UI/ml) was added to the culture medium after plating and during transfection. Cadmium chloride (Cadmium chloride hemi pentahydrate, Sigma Aldrich) (from 0.25 μM to 2 μM) was added during transfection. For proteasome inhibition, 5 μM MG132 was applied for 12 h, 25 h post-transfection. Cultures of post-mitotic neurons were prepared from the cortex of embryonic day 16 Wistar rats. Cells were extracted from the embryos and cultured with 1 μM MK801. Glial cell proliferation was stopped by adding 1 μM cytosine arabinoside after 3 h. […]

Another series deals with proteasome. Kind of series: Proteasome inhibition by MG132 in COS-7 cells, Western blot of ATXN7. In kind it is cell-based. As for the experimental part:
Cell culture, transfections, MG132, INF and cadmium treatments: COS-7 cells were maintained in DMEM (Invitrogen) supplemented with 5% FBS, and penicillin-streptomycin (100 UI/ml; 100 μg/ml). Cell lines were transfected with Lipofectamine-PLUS reagents (Invitrogen) as prescribed. […] Recombinant human Interferon beta (Hu-IFN-b) is obtained from human fibroblast mRNA expressed in E. Coli. Its molecular weight is approximately 20 kDa. Recombinant human Interferon beta was supplied as a solution at 1×10^6 units/ml in PBS (phosphate buffered saline) containing 0.1% BSA (bovine serum albumin) and 10% glycerol. It was purchased from Sigma-Aldrich. Recombinant human Interferon beta (2000 UI/ml) was added to the culture medium after plating and during transfection. Cadmium chloride (Cadmium chloride hemi pentahydrate, Sigma Aldrich) (from 0.25 μM to 2 μM) was added during transfection. For proteasome inhibition, 5 μM MG132 was applied for 12 h, 25 h post-transfection. Cultures of post-mitotic neurons were prepared from the cortex of embryonic day 16 Wistar rats. Cells were extracted from the embryos and cultured with 1 μM MK801. Glial cell proliferation was stopped by adding 1 μM cytosine arabinoside after 3 h. Primary cultures of cortical neurons were transfected 96 h after plating using Lipofectamine 2000 reagent (Invitrogen) according to the manufacturer's instructions.
Western blot and filter retardation assay: Cells were harvested in PBS, pelleted and lysed 30 min on ice in lysis buffer containing 50 mM Tris pH 8.8, 100 mM NaCl, 5 mM MgCl2, 0.5% NP40, 1 mM EDTA and 250 UI/ml benzonase (Merck) supplemented with a cocktail of protease inhibitors (Complete and Pefabloc, Roche). Total extracts were centrifuged at 13000 rpm for 10 min at 4° C. to separate soluble proteins from aggregates and membranes. Supernatants (30 μg protein) were analyzed by Western blot. Pellets were washed with PBS and further incubated 30 min on ice in a pellet buffer containing 20 mM Tris pH 8.0, 15 mM MgCl2 and 250 UI/ml benzonase. Protein concentrations (supernatant and pellet) were determined by Bio-Rad assay. […]

Series [1] concerns SCA7 KI mice. Kind of series: Life time of SCA7 knock-in mice. It is filed as in vivo. The text has this:
(§1) The inventors use the Spinocerebellar ataxia 7 (SCA7) knock-in mouse model developed in Huda Zhoghbi's lab (Yoo et al, 2003). This mouse model SCAT 266Q/5Q reproduces features of an infantile SCAT disease. The phenotype begins at 5 weeks of age with weight loss and then visual impairment. At about 8 weeks their locomotor functions are affected, and by 13-14 weeks of age the ataxic phenotype is severe with tremor, gait ataxia, muscular mass loss, kyphosis. The mice die between 14 and 19 weeks of age. In this severely affected mice model the inventors undertook to test a treatment with murine beta-IFN (Sigma).
(§2) Protocol: 3 injections (intraperitoneally) per week, each of 10.000 Units murine beta IFN per mouse (from Sigma). Starting at 5 weeks of age, and during 10 weeks or more, until the animals die.

The subject of series [2] is wild type mice (C57 black6). Kind of series: Toxicity of beta-IFN injection protocol in wild type mice. It is filed as in vivo. The conditions noted are these: 10.000 Units per mouse, 3 injections per week intraperitoneally, 12 weeks, versus saline.
Description: as §2
The inventors first tested the toxicity of such a treatment, as no publication described a treatment of young animals with IFN. In adult mice affected by multiple sclerosis and receiving injections of beta-IFN, the doses were 10.000 Units per mouse, over 14 weeks. The inventors chose to use the same doses and tested toxicity of the protocol in wild type mice of the same strain (C57 black6) than the KI mice, during 12 weeks. […] The inventors concluded that the dose used was not toxic, and decided to use 10.000 Units, 3 times a week, in the SCAT mouse model.

For series [3], the system named is SCA7 KI mice. Kind of series: Beam walking test in SCA7 knock-in mice. In kind it is in vivo. The settings on record: 10.000 Units i.p. 3 times a week from 5 weeks of age; effect from 12 weeks of age, p inf to 0.005. As for the experimental part: This test was performed each week, with 3 sessions per animal (maximal time 1 min.). The number of errors made on the wooden beam by each mouse, and the traveled total distance were noted. A mean of the 3 assays was calculated.
as §1
Protocol: 3 injections (intraperitoneally) per week, each of 10.000 Units murine beta IFN per mouse (from Sigma). Starting at 5 weeks of age, and during 10 weeks or more, until the animals die. […]
The mouse is placed at the end of the beam, at segment number 1 and the task is to walk towards the box placed at the other end. […] During the task, the inventors carefully monitored the numbers of errors done with the paws on the beam (front or rear paws). The ratio number of errors/distance traveled (EID) is calculated for each animal.

In series [4] the test system is SCA7 KI mice. Kind of series: Locotronic test in SCA7 knock-in mice. The settings on record: treated KI versus untreated KI. In kind it is in vivo. As for the experimental part: Mice have been subjected to crossing the Locotronic apparatus, each week, 3 sessions with 15 min pause between sessions. FIG. 7A indicates the time in seconds for crossing the Locotronic and FIG. 7B indicates the numbers of errors (front paws, rear paws) made by the mice during the task. A mean value was calculated for the 3 sessions, for each group of animals.
as §1, with “(Sigma). […]” for “(Sigma).”
The Locotronic is designed to evaluated fine motor coordination in mice crossing the apparatus. […] On the side of the apparatus there are infra red sensors which measure errors made with front paws and rear paws (differentially scored). […] All the errors detected by the sensors are saved in a file as well as the time needed for crossing. […]

[5] abbreviates: 5 μM MG132, COS-7 cells, Western blot.

“Also recorded” adds a separate entry of the source. Peptide text beside a SMILES is read from it. * marks the point of attachment. Cbz = O=C(OCc1ccccc1)*

These results are taken from US20090208455A1, “Method for Treating Polyglutamine Expansion Neurodegenerative Diseases” (INSERM (Institut National de la Sante et de la Recherche …, priority 2006, published 2009).

Take `O.O.O.O.O.[Cd+2].[Cd+2].[Cl-].[Cl-].[Cl-].[Cl-]` [cadmium, Cadmium chloride hemi pentahydrate]: the “aggregation of mutant ATXN7” value in the series on mutant ATXN7 aggregates is recorded as “dose-dependent”. Also, the “endogenous PML bodies” value with endogenous PML bodies is on record as “totally disrupted”.
For `CC(C)C[C@@H](C=O)NC(=O)[C@H](CC(C)C)NC(=O)[C@H](CC(C)C)NC(=O)OCc1ccccc1` [MG132] (Cbz-Leu-Leu-Leu-aldehyde), in the series with proteasome (setting [5]), the “amount of mutant ATXN7 FL-74Q coexpressed with PML IV” value was “significantly increases; also recorded: increased” and the “amount of mutant ATXN7 FL-74Q expressed alone (absence of PML IV)” value was “significantly increases; also recorded: increased”. Further, in the series on proteasome (MG132 with β-INF treatment, COS-7 cells), the “PML-dependent degradation of ATXN7 induced by β-INF” value was “inhibited”.
With “beta-IFN: murine beta-IFN (Sigma) injected intraperitoneally in mice”, the mean life time in the series on SCA7 KI mice [1] (10.000 Units i.p. 3 times a week from 5 weeks of age, untreated SCA7 KI 15.1 weeks) is 16.25 weeks. The “extension of the life time” value with SCA7 KI mice [1] (treated versus untreated SCA7 KI mice) amounted to 7.5%. Besides, in series [2], the adverse effects entry is given as “did not observe adverse effects”. For the same compound, the “locomotor coordination (ratio number of errors/traveled distance)” value in the series on SCA7 KI mice [3] was “improves the locomotor coordination”. For the same compound, the “time for crossing the Locotronic” value in the series with SCA7 KI mice [4] (10.000 Units i.p. 3 times a week from 5 weeks of age) is reported as “slower than the beta-interferon treated KI”. The “number of errors in the Locotronic” value with SCA7 KI mice [4] (10.000 Units i.p. 3 times a week, at 14 weeks of age) was “tendency for the treated KI to make less errors”.
